# Publication PMC6151695, “Novel Selective Estrogen Receptor Ligand Conjugates Incorporating Endoxifen-Combretastatin and Cyclofenil-Combretastatin Hybrid Scaffolds: Synthesis and Biochemical Evaluation” (Molecules : A Journal of Synthetic Chemistry and Natural …, 2017)
# Marks after values point to notes of the source that are not given here.
# Assays:
# RXF 393 = experiment: NCI60 in vitro screen, Renal cancer; format: cell-based, human
# MALME-3M = experiment: NCI60 in vitro screen, Melanoma; format: cell-based, human
# OVCAR-4 = experiment: NCI60 in vitro screen, Ovarian cancer; format: cell-based, human
# SK-OV-3 = experiment: NCI60 in vitro screen, Ovarian cancer; format: cell-based, human
# RPMI-8226 = experiment: NCI60 in vitro screen, Leukemia; format: cell-based, human
# 60 cancer cell lines = experiment: NCI 60 cell line screen, whole panel; format: cell-based, human
# MDA-MB-231/ATCC = experiment: NCI60 in vitro screen, Breast cancer; format: cell-based, human
# physchem = conditions: buffer
# A498 = experiment: NCI60 in vitro screen, Renal cancer; format: cell-based, human
# SF295 = experiment: NCI60 in vitro screen, CNS Cancer; format: cell-based, human
# HT29 = experiment: NCI60 in vitro screen, Colon Cancer; format: cell-based, human
# SF-268 = experiment: NCI60 in vitro screen, CNS Cancer; format: cell-based, human
# U251 = experiment: NCI60 in vitro screen, CNS Cancer; format: cell-based, human
# human ERβ = target: T1, human ERβ (Homo sapiens, UniProt Q92731); experiment: Estrogen receptor fluorescence polarisation competitive binding assay, ERβ; conditions: competitive binding, fluorescence polarisation; read-out: ERβ IC50
# T1 construct: purchased Invitrogen
# T1 sequence (Q92731 whole entry): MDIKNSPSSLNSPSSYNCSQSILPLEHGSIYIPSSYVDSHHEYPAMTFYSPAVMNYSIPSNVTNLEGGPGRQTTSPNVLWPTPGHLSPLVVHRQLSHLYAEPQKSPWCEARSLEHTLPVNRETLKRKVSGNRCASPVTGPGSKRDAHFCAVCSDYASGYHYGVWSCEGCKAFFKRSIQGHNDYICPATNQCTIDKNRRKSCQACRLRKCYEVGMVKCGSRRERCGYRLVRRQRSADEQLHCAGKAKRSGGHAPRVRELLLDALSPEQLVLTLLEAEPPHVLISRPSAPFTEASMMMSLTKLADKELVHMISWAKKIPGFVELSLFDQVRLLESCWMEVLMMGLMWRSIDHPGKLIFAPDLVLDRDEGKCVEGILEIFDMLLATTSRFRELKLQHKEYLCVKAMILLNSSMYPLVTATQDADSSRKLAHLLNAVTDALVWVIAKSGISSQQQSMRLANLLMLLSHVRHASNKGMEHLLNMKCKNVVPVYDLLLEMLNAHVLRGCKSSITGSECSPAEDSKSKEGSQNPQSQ
# PC-3 = experiment: NCI60 in vitro screen, Prostate cancer; format: cell-based, human
# SW-620 = experiment: NCI60 in vitro screen, Colon Cancer; format: cell-based, human
# in vitro = conditions: human
# KM12 = experiment: NCI60 in vitro screen, Colon Cancer; format: cell-based, human
# OVCAR-5 = experiment: NCI60 in vitro screen, Ovarian cancer; format: cell-based, human
# OVCAR-3 = experiment: NCI60 in vitro screen, Ovarian cancer; format: cell-based, human
# HCT-2998 = experiment: NCI60 in vitro screen, Colon Cancer; format: cell-based, human
# NCI-H460 = experiment: NCI60 in vitro screen, Non-Small Cell Lung Cancer; format: cell-based, human
# OVCAR-8 = experiment: NCI60 in vitro screen, Ovarian cancer; format: cell-based, human
# EKVX = experiment: NCI60 in vitro screen, Non-Small Cell Lung Cancer; format: cell-based, human
# SK-MEL-28 = experiment: NCI60 in vitro screen, Melanoma; format: cell-based, human
# MCF-7 = experiment: cells; conditions: Homo sapiens
# ACHN = experiment: NCI60 in vitro screen, Renal cancer; format: cell-based, human
# NCI-H552 = experiment: NCI60 in vitro screen, Non-Small Cell Lung Cancer; format: cell-based, human
# HL-60(TB) = experiment: NCI60 in vitro screen, Leukemia; format: cell-based, human
smiles,measurement,setting,value
"CC/C(=C(\c1ccccc1)c1ccc(OCCN(C)C(=O)CCC(=O)Oc2cc(/C=C\c3cc(OC)c(OC)c(OC)c3)ccc2OC)cc1)c1ccccc1 (mixture of isomers) [Compound 16a, N-{2-[4-((Z)-1,2-Diphenylbut-1-enyl)phenoxy]ethyl}-N-methylsuccinamic acid 2-methoxy-5-[(Z)-2-(3,4,5-trimethoxyphenyl)vinyl]phenyl ester]",GI50,"RXF 393; Homo sapiens, RXF 393",39.8 nM
same,Growth % (10^−5 M),"RXF 393; RXF 393, 10 μM",12.08%
same,GI50,"MALME-3M; Homo sapiens, Malme-3M",> 10000 nM
same,Growth % (10^−5 M),"MALME-3M; MALME-3M, 10 μM",74.86%
same,GI50,"OVCAR-4; Homo sapiens, OVCAR-4",62.8 nM
same,Growth % (10^−5 M),"OVCAR-4; OVCAR-4, 10 μM",30.96%
same,GI50,"SK-OV-3; Homo sapiens, SK-OV-3",36.8 nM
same,Growth % (10^−5 M),"SK-OV-3; SK-OV-3, 10 μM",17.23%
same,GI50,"RPMI-8226; Homo sapiens, RPMI-8226",27.1 nM
same,Growth % (10^−5 M),"RPMI-8226; RPMI-8226, 10 μM",−18.51 ^e %
same,IC50,"60 cancer cell lines; Homo sapiens, 60 cell, read-out: GI50 (IC50) values for most of the 60 cancer cell lines",10 to 72 nM
same,GI50,"60 cancer cell lines; Homo sapiens, 60 cell, NCI60 five-dose, read-out: MG-MID (μM), mean of GI50 values over all cell lines",1.62 µM
same,inhibition at 10 µM,"60 cancer cell lines; Homo sapiens, 60 cell, one-dose, 10 μM, read-out: growth inhibition in a further 10 cell lines",80 to 89%
same,"MG% (10^−5 M), Mean Growth % over all cell lines","60 cancer cell lines; NCI60 one-dose, 10 μM",14.74%
same,Growth % (10^−5 M),MDA-MB-231/ATCC; 10 μM,23.19%
same,GI50,MDA-MB-231/ATCC; Homo sapiens,28.6 nM
same,half-life at 14.6 µg/mL,physchem,> 20 h
same,Growth % (10^−5 M),"A498; A498, 10 μM",29.47%
same,GI50,"A498; Homo sapiens, A498",58.1 nM
same,GI50,"SF295; Homo sapiens, SF-295, SF295",20.8 nM
same,inhibition at 10 µM,"SF295; Homo sapiens, SF-295, one-dose, 10 μM, read-out: growth inhibition",94%
same,Growth % (10^−5 M),"SF295; SF295, 10 μM",6.21%
same,Growth % (10^−5 M),"HT29; HT29, 10 μM",6.79%
same,GI50,"HT29; Homo sapiens, HT-29, HT29",489 nM
same,inhibition at 10 µM,"HT29; Homo sapiens, HT-29, HT29, one-dose, 10 μM, read-out: growth inhibition",93%
same,GI50,"SF-268; Homo sapiens, SF-268",25.3 nM
same,Growth % (10^−5 M),"SF-268; SF-268, 10 μM",18.51%
same,GI50,"U251; Homo sapiens, U-251, U251",31.6 nM
same,inhibition at 10 µM,"U251; Homo sapiens, U-251, U251, one-dose, 10 μM, read-out: growth inhibition",90%
same,Growth % (10^−5 M),"U251; U251, 10 μM",10.13%
same,IC50,human ERβ,22.7 nM
same,GI50,"PC-3; Homo sapiens, PC-3",12 nM
same,Growth % (10^−5 M),"PC-3; PC-3, 10 μM",19.1%
same,GI50,"SW-620; Homo sapiens, SW-620",< 10 nM
same,Growth % (10^−5 M),"SW-620; SW-620, 10 μM",28.17%
same,CC50,in vitro,> 100000 nM
same,GI50,"KM12; Homo sapiens, KM12",< 10 nM
same,Growth % (10^−5 M),"KM12; KM12, 10 μM",−37 ^e %
same,GI50,"OVCAR-5; Homo sapiens, OVCAR-5",89.4 nM
same,Growth % (10^−5 M),"OVCAR-5; OVCAR-5, 10 μM",34.65%
same,GI50,"OVCAR-3; Homo sapiens, OVCAR-3",< 10 nM
same,Growth % (10^−5 M),"OVCAR-3; OVCAR-3, 10 μM",−57.79 ^e %
same,Growth % (10^−5 M),"HCT-2998; HCT-2998, 10 μM",4.72%
same,inhibition at 10 µM,"HCT-2998; Homo sapiens, HCC-2998, one-dose, 10 μM, read-out: growth inhibition",95%
same,GI50,"HCT-2998; Homo sapiens, HCT-2998",31.7 nM
same,GI50,"NCI-H460; Homo sapiens, NCI-H460",29.9 nM
same,Growth % (10^−5 M),"NCI-H460; NCI-H460, 10 μM",−6.77 ^e %
same,GI50,"OVCAR-8; Homo sapiens, OVCAR-8",49 nM
same,Growth % (10^−5 M),"OVCAR-8; OVCAR-8, 10 μM",12.79%
same,Growth % (10^−5 M),EKVX; 10 μM,22.72%
same,GI50,EKVX; Homo sapiens,56.9 nM
same,GI50,"SK-MEL-28; Homo sapiens, SK-MEL-28",< 10 nM
same,Growth % (10^−5 M),"SK-MEL-28; SK-MEL-28, 10 μM",89.31%
same,GI50,MCF-7; MCF7,34.5 nM
same,IC50,"MCF-7; MCF7, read-out: GI50 (IC50)",36 nM
same,inhibition at 10 µM,"MCF-7; MCF7, read-out: growth inhibition",90%
same,Growth % (10^−5 M),ACHN; 10 μM,22.73%
same,GI50,ACHN; Homo sapiens,45.5 nM
same,GI50,"NCI-H552; Homo sapiens, NCI-H552",19.7 nM
same,Growth % (10^−5 M),"NCI-H552; NCI-H552, 10 μM",−30.85 ^e %
same,Growth % (10^−5 M),HL-60(TB); 10 μM,28.19%
same,GI50,HL-60(TB); Homo sapiens,14.5 nM
